Experimental data as given in US20260008768A1, “UREA DERIVATIVES FOR INHIBITING NLRP3 AND USES THEREOF” (VENTUS THERAPEUTICS U.S., INC., priority 2023, published 2026).

target: human NLRP3 (Homo sapiens, UniProt Q96P20); assay: Scintillation Proximity (SPA) NLRP3 Assay, displacement of 3H-MCC950; type: binding; settings: Table B, activity class; displacement of 3H-MCC950 from human NLRP3
Method: Improved NLRP3 binding correlates with increased affinity for NLRP3 protein and, by extension, increased ability to interfere with its function.
SPA experiments were conducted in a total volume of 20 μL assay buffer containing 20 mM HEPES pH 7.5, 150 mM NaCl, 5 mM MgCl2, 0.01% (v/v) Tween-20, 0.01% (w/v) bovine serum albumin (BSA) and 100 μM of adenosine diphosphate (ADP). A human NLRP3 protein (350 nM) (see, e.g., Sharif et al., Nature (2019) 570:338-343; Hochheiser et al., Nature (2022) 604:184-189; Adreeva et al., Cell (2021) 184:6299-6312; Wang et al., J Exp. Med. (2021) 219:e20211147) was incubated with various concentration of compounds in 5% dimethyl sulfoxide (DMSO) final for 15 minutes at room temperature in a white half-area 96 well OptiPlate (PerkinElmer #6002290) before adding 125 nM final of 3H-MCC950. After the addition of radiolabeled MCC950, the plate was incubated for 60 minutes at room temperature before adding 0.25 mg/ml of copper-coated polyvinyltoluene SPA beads (PerkinElmer #RPNQ0095). The plate was then transferred to a microplate counter (PerkinElmer 2450 Microbeta) to collect binding data. Binding data was analyzed 6 hrs post-PVT bead addition to allow sufficient time to reach equilibrium. Specific binding was calculated from averaged duplicates by subtracting signal from wells without NLRP3 protein.
SPA NLRP3 IC50 assay results are provided in Table B. “A” activity=<1 uM; “B” activity=1-10 uM; “C” activity=>10-50 uM; “D” activity=>50 uM-100 uM; and “E” activity=>100 uM.

Sequence of human NLRP3 (Q96P20 whole entry): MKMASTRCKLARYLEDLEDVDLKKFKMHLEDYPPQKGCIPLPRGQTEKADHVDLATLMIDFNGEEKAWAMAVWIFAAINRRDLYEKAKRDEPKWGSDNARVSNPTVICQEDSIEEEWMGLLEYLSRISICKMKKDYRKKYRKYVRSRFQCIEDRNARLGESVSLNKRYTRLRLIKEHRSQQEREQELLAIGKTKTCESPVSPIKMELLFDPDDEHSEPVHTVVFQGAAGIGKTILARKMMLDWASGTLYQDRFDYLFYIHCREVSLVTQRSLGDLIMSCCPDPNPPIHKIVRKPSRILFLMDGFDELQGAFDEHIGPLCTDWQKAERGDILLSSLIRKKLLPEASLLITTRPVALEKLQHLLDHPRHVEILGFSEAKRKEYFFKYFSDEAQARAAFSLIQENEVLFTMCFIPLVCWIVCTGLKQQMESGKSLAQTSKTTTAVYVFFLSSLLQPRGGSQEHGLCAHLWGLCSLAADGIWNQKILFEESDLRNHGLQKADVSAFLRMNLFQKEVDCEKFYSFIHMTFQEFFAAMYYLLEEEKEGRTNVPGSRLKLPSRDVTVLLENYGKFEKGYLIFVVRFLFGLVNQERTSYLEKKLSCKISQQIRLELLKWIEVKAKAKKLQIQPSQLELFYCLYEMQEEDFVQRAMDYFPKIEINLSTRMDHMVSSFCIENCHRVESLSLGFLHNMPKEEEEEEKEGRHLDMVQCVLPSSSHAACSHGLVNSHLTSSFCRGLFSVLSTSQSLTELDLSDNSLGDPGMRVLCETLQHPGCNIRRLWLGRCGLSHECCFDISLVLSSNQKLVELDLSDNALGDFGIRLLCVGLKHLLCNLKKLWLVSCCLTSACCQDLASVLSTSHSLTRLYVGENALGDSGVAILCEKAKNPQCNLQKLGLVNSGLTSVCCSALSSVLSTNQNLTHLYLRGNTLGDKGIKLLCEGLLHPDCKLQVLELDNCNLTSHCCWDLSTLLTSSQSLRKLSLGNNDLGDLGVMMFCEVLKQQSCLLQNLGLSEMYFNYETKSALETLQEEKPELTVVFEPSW

First: C[C@@H]1C[C@H](NC(=O)N(C)c2ccc(OC(F)(F)F)cc2)[C@H]2CC[C@@H]1N2c1nnn[nH]1 (single isomer, unassigned) [45B*]
Second: C[C@H]1C[C@@H](NC(=O)N(C)c2ccc(OC(F)F)cc2)[C@@H]2CC[C@H]1N2c1nnn[nH]1 (single isomer, unassigned) [42C*]
The IC50 of the first is lower: 10 to 50 µM for the first, greater than 100 µM for the second. The first is the more potent here.

First: C[C@@H]1CCN(c2nnn[nH]2)C[C@@H](NC(=O)N(C)c2c(F)cc(OC(F)F)cc2F)C1 (single isomer, unassigned) [19B*]
Second: C[C@H]1CCN(c2nnn[nH]2)C[C@H](NC(=O)N(C)c2c(F)cc(OC(F)F)cc2F)C1 (single isomer, unassigned) [19C*]
The IC50 of the first is lower: 1 to 10 µM for the first, greater than 100 µM for the second. The first is the more potent here.

`C[C@H]1C[C@@H](NC(=O)N(C)c2ccc(Cl)c(F)c2)[C@@H]2CC[C@H]1N2c1nnn[nH]1` (single isomer, unassigned) [50C*] and `C[C@@H]1C[C@H](NC(=O)N(C)c2ccc(Cl)c(F)c2)[C@H]2CC[C@@H]1N2c1nnn[nH]1` (single isomer, unassigned) [50B*] cannot be ordered by IC50: greater than 100 µM for the first, greater than 100 µM for the second.

First: C[C@@H]1C[C@H](NC(=O)N(C)c2ccc(OC(F)(F)F)c(F)c2)[C@H]2CC[C@@H]1N2c1nnn[nH]1 (single isomer, unassigned) [51B*]
Second: C[C@H]1C[C@@H](NC(=O)N(C)c2ccc(OC(F)(F)F)c(F)c2)[C@@H]2CC[C@H]1N2c1nnn[nH]1 (single isomer, unassigned) [51C*]
The IC50 of the first is lower: 50 to 100 µM for the first, greater than 100 µM for the second.

First: C[C@H]1CCN(c2nnn[nH]2)C[C@@H](NC(=O)N(C)c2ccc(OC(F)F)cc2)C1 (single isomer, unassigned) [11D*]
Second: C[C@H]1CCN(c2nnn[nH]2)C[C@H](NC(=O)N(C)c2ccc(OC(F)F)cc2)C1 (single isomer, unassigned) [11C*]
The IC50 of the first is lower: 1 to 10 µM for the first, 50 to 100 µM for the second. The first is the more potent here.

`C[C@@H]1CCN(c2nnn[nH]2)C[C@@H](NC(=O)N(C)c2ccc(OC(F)(F)F)c(F)c2)C1` (single isomer, unassigned) [14B*] and `C[C@H]1CCN(c2nnn[nH]2)C[C@@H](NC(=O)N(C)c2ccc(C(F)(F)F)c(F)c2)C1` [Compound 9D, 1-(3-fluoro-4-(trifluoromethyl)phenyl)-1-methyl-3-((3S,5S)-5-methyl-1-(1H-tetrazol-5-yl)azepan-3-yl)urea] fall in the same range of IC50: 1 to 10 µM for the first, 1 to 10 µM for the second.

`C[C@H]1C[C@@H](NC(=O)N(C)c2ccc3ocnc3c2)CN(c2nnn[nH]2)C1` [Compound 34A, 1-(benzo[d]oxazol-5-yl)-1-methyl-3-((3R,5S)-5-methyl-1-(1H-tetrazol-5-yl)piperidin-3-yl)urea] and `C[C@H]1CCN(c2nnn[nH]2)C[C@H](NC(=O)N(C)c2ccc(Cl)cc2)C1` (single isomer, unassigned) [4C*] fall in the same range of IC50: 50 to 100 µM for the first, 50 to 100 µM for the second.

`C[C@@H]1CCN(c2nnn[nH]2)C[C@H](NC(=O)N(C)c2ccc(C(F)(F)F)nn2)C1` (single isomer, unassigned) [33A*] and `C[C@H]1CCN(c2nnn[nH]2)C[C@@H](NC(=O)N(C)c2cnc(C(F)(F)F)nc2)C1` (single isomer, unassigned) [31D*] fall in the same range of IC50: 10 to 50 µM for the first, 10 to 50 µM for the second.

First: C[C@H]1CCN(c2nnn[nH]2)C[C@H](NC(=O)N(C)c2ccc(OC(F)(F)F)c(OC(F)F)c2)C1 (single isomer, unassigned) [25C*]
Second: C[C@H]1C[C@@H](NC(=O)N(C)c2ccc(OC(F)(F)F)c(OC(F)F)c2)[C@@H]2CC[C@H]1N2c1nnn[nH]1 (single isomer, unassigned) [63C*]
The IC50 of the first is lower: 1 to 10 µM for the first, 50 to 100 µM for the second. The first is the more potent here.

Compared with `C[C@@H]1CCN(c2nnn[nH]2)C[C@@H](NC(=O)N(C)c2ccc(OC(F)(F)F)cc2)C1` (single isomer, unassigned) [10B*], `CCN(C(=O)N[C@H]1C[C@H](C)CCN(c2nnn[nH]2)C1)c1ccc(OC(F)(F)F)cc1` (single isomer, unassigned) [43B*] is lower in IC50: 1 to 10 µM for the first, less than 1 µM for the second.

First: C[C@H]1CCN(c2nnn[nH]2)C[C@@H](NC(=O)N(C)c2ccc(Cl)cc2Cl)C1 (single isomer, unassigned) [7D*]
Second: C[C@H]1CCN(c2nnn[nH]2)C[C@H](NC(=O)N(C)c2ccc(Cl)cc2F)C1 (single isomer, unassigned) [5C*]
The IC50 of the first is lower: 10 to 50 µM for the first, 50 to 100 µM for the second.

First: C[C@H]1CCN(c2nnn[nH]2)C[C@H](NC(=O)N(CC2CC2)c2ccc(OC(F)(F)F)cc2)C1 (single isomer, unassigned) [44C*]
Second: C[C@@H]1CCN(c2nnn[nH]2)C[C@@H](NC(=O)N(CC2CC2)c2ccc(OC(F)(F)F)cc2)C1 (single isomer, unassigned) [44B*]
The IC50 of the first is higher: 10 to 50 µM for the first, 1 to 10 µM for the second.

Compared with `C[C@@H]1CCN(c2nnn[nH]2)C[C@@H](NC(=O)N(C)c2ccc(OC(F)F)cc2F)C1` (single isomer, unassigned) [17B*], `C[C@H]1CCN(c2nnn[nH]2)C[C@H](NC(=O)N(C)c2ccc(C(F)F)cc2F)C1` (single isomer, unassigned) [18C*] is higher in IC50: 1 to 10 µM for the first, 10 to 50 µM for the second. The first is the more potent here.

`C[C@H]1CCN(c2nnn[nH]2)C[C@@H](NC(=O)N(C)c2ccc(Cl)cc2F)C1` (single isomer, unassigned) [5D*] and `C[C@@H]1CCN(c2nnn[nH]2)C[C@@H](NC(=O)N(C)c2ccc(Cl)cc2F)C1` (single isomer, unassigned) [5B*] fall in the same range of IC50: 1 to 10 µM for the first, 1 to 10 µM for the second.

`C[C@@H]1CCN(c2nnn[nH]2)C[C@@H](NC(=O)N(C)c2ccc(C3CC3)c(F)c2)C1` (single isomer, unassigned) [23B*] and `C[C@@H]1CCN(c2nnn[nH]2)C[C@@H](NC(=O)N(C)c2ccc(C(F)(F)F)c(F)c2)C1` (single isomer, unassigned) [9B*] fall in the same range of IC50: 1 to 10 µM for the first, 1 to 10 µM for the second.

`C[C@@H]1CCN(c2nnn[nH]2)C[C@@H](NC(=O)N(C)c2ccc(OC(F)(F)F)cc2F)C1` (single isomer, unassigned) [24B*] and `C[C@H]1CCN(c2nnn[nH]2)C[C@@H](NC(=O)N(C)c2ccc(C(F)(F)F)cc2F)C1` (single isomer, unassigned) [13D*] fall in the same range of IC50: 1 to 10 µM for the first, 1 to 10 µM for the second.

Compared with `C[C@H]1C[C@@H](NC(=O)N(C)c2c(F)cc(OC(F)F)cc2F)[C@@H]2CC[C@H]1N2c1nnn[nH]1` (single isomer, unassigned) [61C*], `C[C@H]1C[C@H](NC(=O)N(C)c2c(F)cc(OC(F)(F)F)cc2F)[C@@H]2CC[C@H]1N2c1nnn[nH]1` (single isomer, unassigned) [62D*] is lower in IC50: greater than 100 µM for the first, 50 to 100 µM for the second. The second is the more potent here.

First: C[C@@H]1C[C@H](NC(=O)N(C)c2ccc(OC(F)F)c(F)c2F)[C@H]2CC[C@@H]1N2c1nnn[nH]1 (single isomer, unassigned) [58B*]
Second: C[C@H]1C[C@H](NC(=O)N(C)c2ccc(OC(F)F)c(F)c2F)[C@@H]2CC[C@H]1N2c1nnn[nH]1 (single isomer, unassigned) [58D*]
The IC50 of the first is higher: greater than 100 µM for the first, 10 to 50 µM for the second. The second is the more potent here.

First: C[C@H]1CCN(c2nnn[nH]2)C[C@@H](NC(=O)N(C)c2ccc(OC(F)(F)F)c(F)c2F)C1 (single isomer, unassigned) [26D*]
Second: C[C@H]1CCN(c2nnn[nH]2)C[C@H](NC(=O)N(C)c2ccc(OC(F)(F)F)c(F)c2F)C1 (single isomer, unassigned) [26C*]
The IC50 of the first is lower: 10 to 50 µM for the first, greater than 100 µM for the second. The first is the more potent here.

`C[C@@H]1CCN(c2nnn[nH]2)C[C@@H](NC(=O)Nc2ccc(Cl)cc2F)C1` (single isomer, unassigned) [27B*] and `C[C@@H]1CCN(c2nnn[nH]2)C[C@H](NC(=O)Nc2ccc(Cl)cc2F)C1` (single isomer, unassigned) [27A*] fall in the same range of IC50: 1 to 10 µM for the first, 1 to 10 µM for the second.

`C[C@H]1C[C@@H](NC(=O)N(C)c2ccc(C(F)F)c(F)c2)[C@@H]2CC[C@H]1N2c1nnn[nH]1` (single isomer, unassigned) [53C*] and `C[C@H]1C[C@@H](NC(=O)N(C)c2ccc(OC(F)F)c(F)c2)[C@@H]2CC[C@H]1N2c1nnn[nH]1` (single isomer, unassigned) [52C*] cannot be ordered by IC50: greater than 100 µM for the first, greater than 100 µM for the second.

Compared with `C[C@H]1C[C@@H](NC(=O)N(C)c2ccc(C3CC3)c(F)c2)[C@@H]2CC[C@H]1N2c1nnn[nH]1` (single isomer, unassigned) [54C*], `C[C@H]1C[C@H](NC(=O)N(C)c2ccc(C(F)(F)F)cc2F)[C@@H]2CC[C@H]1N2c1nnn[nH]1` (single isomer, unassigned) [48D*] is lower in IC50: greater than 100 µM for the first, 10 to 50 µM for the second.

Compared with `C[C@@H]1C[C@H](NC(=O)N(C)c2ccc(C(F)(F)F)c(F)c2F)[C@H]2CC[C@@H]1N2c1nnn[nH]1` (single isomer, unassigned) [47B*], `C[C@H]1C[C@H](NC(=O)N(C)c2ccc(C(F)(F)F)c(F)c2F)[C@@H]2CC[C@H]1N2c1nnn[nH]1` (single isomer, unassigned) [47D*] is lower in IC50: 50 to 100 µM for the first, 10 to 50 µM for the second. The second is the more potent here.

First: C[C@H]1CCN(c2nnn[nH]2)C[C@@H](NC(=O)Nc2ccc(Cl)cc2F)C1 (single isomer, unassigned) [27D*]
Second: C[C@@H]1CCN(c2nnn[nH]2)C[C@H](NC(=O)N(C)c2cnc(C(F)(F)F)nc2)C1 (single isomer, unassigned) [31A*]
The IC50 of the first is higher: greater than 100 µM for the first, 10 to 50 µM for the second. The second is the more potent here.

First: C[C@H]1C[C@@H](NC(=O)N(C)c2ccc(C(F)(F)F)cc2F)[C@@H]2CC[C@H]1N2c1nnn[nH]1 (single isomer, unassigned) [48C*]
Second: C[C@@H]1CCN(c2nnn[nH]2)C[C@@H](NC(=O)N(C)c2ncc(C(F)(F)F)cn2)C1 (single isomer, unassigned) [30B*]
The IC50 of the first is lower: 50 to 100 µM for the first, greater than 100 µM for the second.

same assay, conditions: Table C; displacement of 3H-MCC950 from human NLRP3

Compound `C[C@@H]1CCN(c2nnn[nH]2)C[C@H](NC(=O)Nc2ccc(Cl)cc2F)C1` (single isomer, unassigned) [27A*] has an IC50 of 1.4 µM.
